Results published in article PMC2962730 (Journal of neurochemistry, 2010).
Where a chain is given by its changes, count along the chain named.

How the values were obtained:
hVAChT W325F [1] = molecular target: T1, hVAChT W325F (Homo sapiens, UniProt Q16572, W325F); test: [3H]vesamicol saturation binding; settings: pH 7.4
T1 sequence (Q16572 1-532 W325F): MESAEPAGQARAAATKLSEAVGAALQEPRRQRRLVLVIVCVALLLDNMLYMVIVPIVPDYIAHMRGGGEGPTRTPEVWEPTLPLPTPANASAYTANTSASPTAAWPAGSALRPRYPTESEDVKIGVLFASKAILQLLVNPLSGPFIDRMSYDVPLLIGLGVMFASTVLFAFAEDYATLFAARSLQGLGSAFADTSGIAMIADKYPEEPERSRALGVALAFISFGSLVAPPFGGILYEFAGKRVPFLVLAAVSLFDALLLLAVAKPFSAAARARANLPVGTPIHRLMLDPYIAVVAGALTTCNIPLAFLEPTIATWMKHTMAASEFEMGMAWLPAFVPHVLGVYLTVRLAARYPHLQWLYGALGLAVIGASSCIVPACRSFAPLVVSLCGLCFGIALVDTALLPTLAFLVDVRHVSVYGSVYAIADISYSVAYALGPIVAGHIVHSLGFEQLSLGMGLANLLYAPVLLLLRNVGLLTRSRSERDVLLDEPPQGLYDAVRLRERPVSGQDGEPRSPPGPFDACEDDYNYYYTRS

VAChT C391Y [2] = settings: ref Zhu et al. (2001); cited from earlier work
hVAChT Y60W = molecular target: T2, hVAChT Y60W (Homo sapiens, UniProt Q16572, Y60W); test: ACh equilibrium binding by competition against [3H]vesamicol
T2 sequence (Q16572 1-532 Y60W): T1 sequence (Q16572 1-532 W325F) with Y60W, F325W

hVAChT W325F [3] = molecular target: T1, hVAChT W325F; test: as above
hVAChT C391A = molecular target: T3, hVAChT C391A (Homo sapiens, UniProt Q16572, C391A); test: as above
T3 sequence (Q16572 1-532 C391A): T1 sequence (Q16572 1-532 W325F) with F325W, C391A

hVAChT A330V = molecular target: T4, hVAChT A330V (Homo sapiens, UniProt Q16572, A330V); test: [3H]ACh transport; format: biochemical
T4 sequence (Q16572 1-532 A330V): T1 sequence (Q16572 1-532 W325F) with F325W, A330V

[4] = system: rat VAChT (rVAChT) W331 mutants; settings: mutations of W331 in rVAChT; ref Ojeda et al. 2004; cited from earlier work
VAChT C391Y [5] = settings: ref Zhu et al. (2001); cited from earlier work; remark: listed apart in the source

SMILES | Bmax, maximal specific [3H]vesamicol binding (VAChT expression level) (hVAChT W325F [1]) | vesamicol binding (VAChT C391Y [2]) | Kd (hVAChT Y60W) | tighter binding of ACh than by wild-type (hVAChT Y60W; Y60W hVAChT vs wild-type) | FHA, fraction of the ACh sites that have high affinity (hVAChT Y60W; Y60W hVAChT, pH 7.4) | Kd (hVAChT W325F [3]) | FHA, fraction of the ACh sites that have high affinity (hVAChT W325F [3]; W325F hVAChT, pH 7.4) | Kd (hVAChT C391A) | FHA, fraction of the ACh sites that have high affinity (hVAChT C391A; C391A hVAChT, pH 7.4) | Vmax/Bmax, ACh transport normalized to Bmax (hVAChT A330V; pH 7.4) | Km (hVAChT A330V; read-out: KM, Michaelis-Menten constant for ACh transport, pH 7.4) | decrease in ACh affinity (equilibrium) [4] | higher KM value for transport (VAChT C391Y [5])
O[C@@H]1CCCC[C@H]1N1CCC(c2ccccc2)CC1 (racemic) [vesamicol, ( )-trans-2-(4-phenylpiperidino)cyclohexanol] | 75 ± 3 pmol/mg | does not bind vesamicol | – | – | – | – | – | – | – | – | – | – | –
CC(=O)OCC[N+](C)(C)C [ACh, acetylcholine] | – | – | 4.5 ± 0.1 mM | 2 fold | 0.86 ± 0.02 | 7.3 ± 1.6 mM | 0.74 ± 0.09 | 10 ± 3 mM | 0.71 ± 0.07 | 6.3 ± 1.3 min⁻¹ | 2200 ± 900 µM | ≤ 9 fold | 2.6 fold
